Each structure is given as a SMILES string.

Experiment [1] concerns the target T1, human recombinant muscarinic receptor subtype 1 (M1) expressed in CHO cells (Homo sapiens, UniProt P11229).
T1 construct: purchased Biosignal, Canada; host or cells: CHO cells
T1 sequence (P11229 1-460): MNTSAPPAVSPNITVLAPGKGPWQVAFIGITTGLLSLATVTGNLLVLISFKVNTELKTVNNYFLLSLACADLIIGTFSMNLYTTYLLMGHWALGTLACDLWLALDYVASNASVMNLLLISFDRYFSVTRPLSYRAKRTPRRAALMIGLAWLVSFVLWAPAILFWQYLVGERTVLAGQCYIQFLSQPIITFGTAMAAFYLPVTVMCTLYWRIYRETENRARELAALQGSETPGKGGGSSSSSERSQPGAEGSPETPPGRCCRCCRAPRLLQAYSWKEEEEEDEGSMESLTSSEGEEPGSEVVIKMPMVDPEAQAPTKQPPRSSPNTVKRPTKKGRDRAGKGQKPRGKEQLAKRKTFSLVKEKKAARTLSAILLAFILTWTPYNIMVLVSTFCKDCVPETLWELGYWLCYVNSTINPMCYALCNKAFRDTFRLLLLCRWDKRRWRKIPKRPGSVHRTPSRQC
The experiment is described as follows: [3H]-N-methyl-scopolamine ([3H]-NMS) affinity screening test, M1. As to conditions: inhibition of specific [3H]-NMS binding. The text has this:
(§1) [^3H]-N-methyl-scopolamine ([^3H]-NMS) Affinity Screening Test
(§2) In order to exclude the interaction between subtypes, human recombinant muscarinic receptor subtypes 1, 2 and 3 expressed in CHO cells (M1, M2 and M3, Biosignal, Canada) were purchased and used as receptor sources. [^3H]-N-methyl-scopolamine (NEN, NET-636) was used as radioisotope labeled ligands, and atropine was used for the measurement of the non-specific binding ability. About 10 kinds of experimental apparatuses including Liquid Scintillation Counter (MicroBeta 1450 plus), Inotech cell harvester (96-well) were used.
In order to determine the effect of each compound on M1 and M2 receptors, the compounds were reacted with the receptors using radioisotope labeled ligands. After the reaction, the excess unbound ligands were removed by filtering with a glass fiber filter.
The freeze-stored receptors at −70° C. were suspended in test buffer solutions and then the screening test (BioRad protein) was carried out to determine the optimum concentration of the proteins. Thereafter, 50 μL of hot-ligands and 10 μL of test drugs were added to 96-well plate and 100 μL of 50 mM TRIS buffer (pH 7.2) containing 10 mM MgCl2 and 1 mM EDTA was added as a test buffer. The final volume of the reaction was 0.25 mL. The reaction was initiated by adding 100 μL of the diluted receptor suspension, and continued for 60 minutes on a shaking incubator at 27° C. This test was repeated four times. After 60 minutes, the reaction was terminated by adding cold TRIS buffer (0.5 mL, pH 7.4). The excess unbound radioisotopes were removed from the reaction mixture using Inotech cell harvester system. After washing the mixture, the radioactivity detected by the filter mat was measured using Liquid Scintillation Counter. As primary stage of the efficacy screening, the drugs at two concentrations (1 μM, 10 μM) were screened for their affinity for the receptors. […] Finally, IC50 values were calculated at the gradient of 10 concentrations. The test drugs were diluted sequentially for the required concentrations by dissolving them in dimethylsulfoxide (DMSO). […] From the saturation affinity screening test, Kd and Bmax values, and IC50 or Ki values of each test drugs were calculated by observing the non-linear regression using prism (Graphpad software Inc.,USA).
(§3) In the equilibrium affinity screening test, [^3H]-N-methyl-scopolamines at the gradient of 12 concentrations were used for the measurement of the binding ability (IC50). In the competition screening test, 1 nM of [^3H]-N-methyl-scopolamines, and the reference drugs at the gradient of 10 concentrations were used for the measurement. 4-DAMP-methyliodide, Pirenzepine, p-F-hexahydro-sila-defenidol, Methoctramine, and the like were used as reference drugs.

Experiment [2] deals with Oxo-M binding receptor of muscarinic receptors (rat forebrain synapse membranes). Nature of the experiment: [3H]-oxotremorine-M ([3H]-Oxo-M) affinity screening test. The note with it: ratio IC50 NMS / IC50 Oxo-M; >180 full agonist, 14 to 130 partial agonist, 0.2 to 1.9 antagonist. From the text:
(§4) [^3H]-oxotremorine-M ([^3H]-Oxo-M) Affinity Screening Test
(§5) The experimental principle was the same as [^3H]-NMS affinity screening test. […] The functions of the compounds may be determined by carrying out both of [^3H]-NMS and [^3H]-Oxo-M (oxotremorine) affinity screening tests to measure their respective IC50 values and calculating ratios (NMS/Oxo-M) of the measured IC50 values.
(§6) Synapse membranes for binding assay of Oxo-M binding receptor of muscarinic receptors were directly prepared and used in the laboratory as follows: male Sparague-Dawley rats (supplied from Laboratory Animal Center of Korea Research Institute of Chemical Technology, 250 to 300 g) were sacrificed by decapitation. The brain tissues were immediately removed from and the forebrain was obtained, which was sectioned into small pieces. After adding 10-fold amount of ice-cooled solution of sucrose (0.32M), the sectioned forebrain was homogenized using Teflon-glass homogenizer (Contorque, Eberbach) at 10 strokes and 500 rpm, centrifuged at 1000 g for 15 minutes, and then the supernatant was again centrifuged at 17000 g for 20 minutes. The pellet was stored at −20° C. and then used.
(§7) Before the pellet was used at this assay, it was suspended in 10 mL of 20 mM HEPES buffer (pH 7.4), again centrifuged at 17000 g for 15 minutes and then washed. Finally, the washed membrane was diluted in ice-cooled 20 mM HEPES buffer (pH 7.4) to the final concentration of 1:100 (wet wt/v) and used at this assay. All test samples were tested four times, and 20 mM HEPES buffer (pH 7.4) was used as a buffer for screening test. The final volume of reaction was 1 mL, and 24-well plate (costar 24-well) was used. 50 μL of hot-ligand (Oxo-M 5 nM) and 10 μL of test drugs were included therein, and the reaction was initiated by adding 750 μL of synapse membrane and continued at 30° C. for 40 minutes on the shaking incubator. 2 μM atropine was used for non-specific binding in all tests. After completion of the reaction, the receptor binding ligands and non-binding ligands were separated by using Inotech cell harvester (24-channels, Inotech, Switzerland) and filtering under reduced pressure (10×ice-cooled saline) with Wallac GF/C filter (pre-immersed in 0.05% polyethylene imine). The radioactivity of the receptor binding ligands was detected by Liquid Scintillation Counter (MicroBeta Plus, Wallac, Finland).
(§8) The test drugs were diluted sequentially for the required concentrations by dissolving them in dimethylsulfoxide (DMSO) and used in the test. […] From the saturated affinity screening test, Kd and Bmax values, and IC50 or Ki values of respective test drugs were calculated by observing the non-linear regression using prism (Graphpad software Inc., USA). The saturated affinity screening test was carried out in the range of 0.1 to 10 nM of [^3H]-Oxo-M ligand as described above.

Experiment [3] deals with T2, Oxo-M binding receptor of muscarinic receptors (rat forebrain synapse membranes).
T2 construct: under head M1
The description is as above. The note with it: inhibition of specific [3H]-Oxo-M binding, under head M1; for M1 Oxo-M (1 μM) inhibition: compound at 1 μM.
Description: as §4, §5, §6, §7, §8

Experiment [4] deals with T3, human recombinant muscarinic receptor subtype 2 (M2) expressed in CHO cells (Homo sapiens, UniProt P08172).
T3 construct: purchased Biosignal, Canada; host or cells: CHO cells
T3 sequence (P08172 1-466): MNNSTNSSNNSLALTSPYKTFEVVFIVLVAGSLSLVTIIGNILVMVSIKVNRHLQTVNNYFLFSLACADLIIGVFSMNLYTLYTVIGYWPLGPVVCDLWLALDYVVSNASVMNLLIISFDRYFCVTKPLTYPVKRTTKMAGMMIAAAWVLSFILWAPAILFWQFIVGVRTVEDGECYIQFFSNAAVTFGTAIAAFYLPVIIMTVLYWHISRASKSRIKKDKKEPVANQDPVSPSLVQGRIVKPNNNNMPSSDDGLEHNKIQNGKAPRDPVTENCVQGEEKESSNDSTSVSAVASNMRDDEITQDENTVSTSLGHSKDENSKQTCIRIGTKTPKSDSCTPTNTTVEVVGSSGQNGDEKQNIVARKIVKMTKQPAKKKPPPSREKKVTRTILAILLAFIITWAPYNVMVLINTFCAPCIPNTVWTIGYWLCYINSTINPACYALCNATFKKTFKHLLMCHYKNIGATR
Nature of the experiment: [3H]-N-methyl-scopolamine ([3H]-NMS) affinity screening test, M2. The note with it: inhibition of specific [3H]-NMS binding, compound at 1 μM.
Description: as §1, §2
In order to determine the effect of each compound on M1 and M2 receptors, the compounds were reacted with the receptors using radioisotope labeled ligands. After the reaction, the excess unbound ligands were removed by filtering with a glass fiber filter. The amount of radioisotopes remaining on the washed filter plate was then measured to quantify the binding reaction between the receptors and the ligands and, from the result, the affinity of the drugs for the receptors was determined.
The freeze-stored receptors at −70° C. were suspended in test buffer solutions and then the screening test (BioRad protein) was carried out to determine the optimum concentration of the proteins. Thereafter, 50 μL of hot-ligands and 10 μL of test drugs were added to 96-well plate and 100 μL of 50 mM TRIS buffer (pH 7.2) containing 10 mM MgCl2 and 1 mM EDTA was added as a test buffer. The final volume of the reaction was 0.25 mL. The reaction was initiated by adding 100 μL of the diluted receptor suspension, and continued for 60 minutes on a shaking incubator at 27° C. This test was repeated four times. After 60 minutes, the reaction was terminated by adding cold TRIS buffer (0.5 mL, pH 7.4). The excess unbound radioisotopes were removed from the reaction mixture using Inotech cell harvester system. After washing the mixture, the radioactivity detected by the filter mat was measured using Liquid Scintillation Counter. As primary stage of the efficacy screening, the drugs at two concentrations (1 μM, 10 μM) were screened for their affinity for the receptors. As secondary stage, drugs showing remarkable efficacies were determined at the lower concentrations. Finally, IC50 values were calculated at the gradient of 10 concentrations. The test drugs were diluted sequentially for the required concentrations by dissolving them in dimethylsulfoxide (DMSO). […] From the saturation affinity screening test, Kd and Bmax values, and IC50 or Ki values of each test drugs were calculated by observing the non-linear regression using prism (Graphpad software Inc.,USA).
as §3

As for `CN1CCC=C(C(CN2CCCC2=O)=NOCc2ccccc2)C1` (mixture of isomers) [Example 29, 1-[2-benzyloxyimino-2-(1-methyl-1,2,5,6-tetrahydro-pyridin-3-yl)-ethyl]-pyrrolidin-2-one], the IC50 in experiment [1] came out at 79200 nM. For the same compound, the inhibition at 10 µM in experiment [1] (compound at 10 μM) is 0%. In addition, in experiment [2], the “NMS/Oxo-M (ratio of IC50 values)” value is on record as 486. Besides, in experiment [3], the “M1 Oxo-M (1 μM) inhibition” value came out at 78.4% and the IC50 turned out to be 163 nM. In addition, the inhibition at 1 µM in experiment [4] came out at 0%.

With `COC(=O)C1=CCCN(C)C1` [Arecoline, reference compound], in experiment [3], the “M1 Oxo-M (1 μM) inhibition” value is on record as 85.5% and the IC50 came out at 140 nM.

Consider `CN1CCC=C(C(CCN2CCCC2=O)=NO)C1` [Example 16, 1-[3-hydroxyimino-3-(1-methyl-1,2,5,6-tetrahydro-pyridin-3-yl)-propyl]-pyrrolidin-2-one], for which the IC50 in experiment [1] was 17400 nM. Also, the inhibition at 10 µM in experiment [1] (compound at 10 μM) was 39.5%. Further, the “NMS/Oxo-M (ratio of IC50 values)” value in experiment [2] is 236. In experiment [3], the “M1 Oxo-M (1 μM) inhibition” value came out at 92.4% and the IC50 was 74 nM. Moreover, in experiment [4], the inhibition at 1 µM was found to be 22.6%.

For `C#CCON=C(CCN1CCCC1=O)C1=CCCN(C)C1` [Example 18, 1-[3-(1-methyl-1,2,5,6-tetrahydro-pyridin-3-yl)-3-propyn-2-yloxyimino-propyl]-pyrrolidin-2-one], in experiment [1], the IC50 stood at 13400 nM. Moreover, the inhibition at 10 µM in experiment [1] (compound at 10 μM) stood at 42.9%. Further, the “NMS/Oxo-M (ratio of IC50 values)” value in experiment [2] was found to be 35. Further, in experiment [3], the “M1 Oxo-M (1 μM) inhibition” value was 75.3% and the IC50 amounted to 381 nM. For the same compound, in experiment [4], the inhibition at 1 µM is 26.8%.

For `C#CCON=C(CN1CCCC1=O)c1cccnc1` [Example 24, 1-(2-propyn-2-yloxyimino-2-pyridin-3-yl-ethyl)-pyrrolidin-2-one], the “M1 NMS (10 μM) inhibition” value in experiment [1] (compound at 10 μM) stood at 0%. For the same compound, the “NMS/Oxo-M (ratio of IC50 values)” value in experiment [2] is recorded as 306. In addition, in experiment [3], the “M1 Oxo-M (1 μM) inhibition” value was found to be 58.0% and the IC50 is 327 nM. Further, the “M2 NMS (1 μM) inhibition” value in experiment [4] worked out at 0%.

On to `CN1CCC=C(C(CN2CCCC2=O)=NO)C1` [Example 26, 1-[2-hydroxyimino-2-(1-methyl-1,2,5,6-tetrahydro-pyridin-3-yl)-ethyl]-pyrrolidin-2-one], for which the IC50 in experiment [1] was found to be 3630 nM; in experiment [3], 0.89 nM. Also, the inhibition at 10 µM in experiment [1] (compound at 10 μM) is 87.6%. Besides, the “NMS/Oxo-M (ratio of IC50 values)” value in experiment [2] was determined as 4078. Besides, the “M1 Oxo-M (1 μM) inhibition” value in experiment [3] is on record as 96.9%. Moreover, in experiment [4], the inhibition at 1 µM was found to be 94.1%.

As to `CN1CCC=C(C#CCN2CCCC2=O)C1` [Example 30, 1-[3-(1-methyl-1,2,5,6-tetrahydro-pyridin-3-yl)-propyn-2-yl]-pyrrolidin-2-one], the IC50 amounted to 10800 nM in experiment [1] and 14 nM in experiment [3]. Besides, the inhibition at 10 µM in experiment [1] (compound at 10 μM) came to 58.5%. In experiment [2], the “NMS/Oxo-M (ratio of IC50 values)” value worked out at 774. The “M1 Oxo-M (1 μM) inhibition” value in experiment [3] is recorded as 96.6%. The inhibition at 1 µM in experiment [4] stood at 42.3%.

The term IC50 denotes the concentration that inhibits the measured activity by half. A word on the inhibition: it is the drop in the measured response relative to a control, in per cent.
